Measurements taken from publication PMC11830721 (Frontiers in Pharmacology, 2025).

Columns and labels:
Assay in all cases: SelectScreen kinase selectivity assay
Assay type in all cases: biochemical
Settings in all cases: ten-dose 0.25–128 μM
FGR = FGR (Homo sapiens, UniProt P09769)
Description: (§1) Following the standardized kinase activity assay protocol as previously reported, we utilized the SelectScreen Kinase Profiling Service (Thermo Fisher Scientific) to determine the kinase selectivity profile of FLIN-4 ([van der Wel et al., 2020]). Through a ten-dose dilution series ranging from 0.25 μM to 128 μM in dose-response experiments, we precisely measured the inhibitory effect of FLIN-4 on the substrate phosphorylation reactions catalyzed by a panel of kinases, and thus ascertained the half-maximal inhibitory concentrations (IC50) for each kinase.

EPHA3 = EPHA3 (Homo sapiens, UniProt P29320)
Description: as §1

ERBB2 = ERBB2 (Homo sapiens, UniProt P04626)
Description: as §1

EPHA6 = EPHA6 (Homo sapiens, UniProt Q9UF33)
Description: as §1

EPHA2 = EPHA2 (Homo sapiens, UniProt P29317)
Description: as §1

NTRK2 = NTRK2 (Homo sapiens, UniProt Q16620)
Description: as §1

HCK = HCK (Homo sapiens, UniProt P08631)
Description: as §1

PDGFRB = PDGFRB (Homo sapiens, UniProt P09619)
Description: as §1

EPHB1 = EPHB1 (Homo sapiens, UniProt P54762)
Description: as §1

MUSK = MUSK (Homo sapiens, UniProt O15146)
Description: as §1

NTRK3 = NTRK3 (Homo sapiens, UniProt Q16288)
Description: as §1

JAK1 = JAK1 (Homo sapiens, UniProt P23458)
Description: as §1

EPHA5 = EPHA5 (Homo sapiens, UniProt P54756)
Description: as §1

FYN = FYN (Homo sapiens, UniProt P06241)
Description: as §1

FGFR1 = FGFR1 (Homo sapiens, UniProt P11362)
Description: as §1

LTK = LTK (Homo sapiens, UniProt P29376)
Description: as §1

PTK2 = PTK2 (Homo sapiens, UniProt Q05397)
Description: as §1

NTRK1 = NTRK1 (Homo sapiens, UniProt P04629)
Description: as §1

CDK1 = CDK1 (Homo sapiens, UniProt P06493)
Description: as §1

EPHB4 = EPHB4 (Homo sapiens, UniProt P54760)
Description: as §1

JAK2 = JAK2 (Homo sapiens, UniProt O60674)
Description: as §1

EPHA4 = EPHA4 (Homo sapiens, UniProt P54764)
Description: as §1

CDK2 = CDK2 (Homo sapiens, UniProt P24941)
Description: as §1

PLK1 = PLK1 (Homo sapiens, UniProt P53350)
Description: as §1

MET = MET (Homo sapiens, UniProt P08581)
Description: as §1

PDGFRA = PDGFRA (Homo sapiens, UniProt P16234)
Description: as §1

FGFR3 = FGFR3 (Homo sapiens, UniProt P22607)
Description: as §1

ZAP70 = ZAP70 (Homo sapiens, UniProt P43403)
Description: as §1

ABL2 = ABL2 (Homo sapiens, UniProt P42684)
Description: as §1

MST1R = MST1R (Homo sapiens, UniProt Q04912)
Description: as §1

INSRR = INSRR (Homo sapiens, UniProt P14616)
Description: as §1

RAF1 = RAF1 (Homo sapiens, UniProt P04049, Y340D/Y341D)
Description: as §1

AXL = AXL (Homo sapiens, UniProt P30530)
Description: as §1

EPHA8 = EPHA8 (Homo sapiens, UniProt P29322)
Description: as §1

PIM1 = PIM1 (Homo sapiens, UniProt P11309)
Description: as §1

FGFR4 = FGFR4 (Homo sapiens, UniProt P22455)
Description: as §1

FRK = FRK (Homo sapiens, UniProt P42685)
Description: as §1

FGFR2 = FGFR2 (Homo sapiens, UniProt P21802)
Description: as §1

LYN = LYN (Homo sapiens, UniProt P07948)
Description: as §1

EPHB3 = EPHB3 (Homo sapiens, UniProt P54753)
Description: as §1

TYRO3 = TYRO3 (Homo sapiens, UniProt Q06418)
Description: as §1

ALK = ALK (Homo sapiens, UniProt Q9UM73)
Description: as §1

Measured: IC50

Sequence of TYRO3 (Q06418 41-890): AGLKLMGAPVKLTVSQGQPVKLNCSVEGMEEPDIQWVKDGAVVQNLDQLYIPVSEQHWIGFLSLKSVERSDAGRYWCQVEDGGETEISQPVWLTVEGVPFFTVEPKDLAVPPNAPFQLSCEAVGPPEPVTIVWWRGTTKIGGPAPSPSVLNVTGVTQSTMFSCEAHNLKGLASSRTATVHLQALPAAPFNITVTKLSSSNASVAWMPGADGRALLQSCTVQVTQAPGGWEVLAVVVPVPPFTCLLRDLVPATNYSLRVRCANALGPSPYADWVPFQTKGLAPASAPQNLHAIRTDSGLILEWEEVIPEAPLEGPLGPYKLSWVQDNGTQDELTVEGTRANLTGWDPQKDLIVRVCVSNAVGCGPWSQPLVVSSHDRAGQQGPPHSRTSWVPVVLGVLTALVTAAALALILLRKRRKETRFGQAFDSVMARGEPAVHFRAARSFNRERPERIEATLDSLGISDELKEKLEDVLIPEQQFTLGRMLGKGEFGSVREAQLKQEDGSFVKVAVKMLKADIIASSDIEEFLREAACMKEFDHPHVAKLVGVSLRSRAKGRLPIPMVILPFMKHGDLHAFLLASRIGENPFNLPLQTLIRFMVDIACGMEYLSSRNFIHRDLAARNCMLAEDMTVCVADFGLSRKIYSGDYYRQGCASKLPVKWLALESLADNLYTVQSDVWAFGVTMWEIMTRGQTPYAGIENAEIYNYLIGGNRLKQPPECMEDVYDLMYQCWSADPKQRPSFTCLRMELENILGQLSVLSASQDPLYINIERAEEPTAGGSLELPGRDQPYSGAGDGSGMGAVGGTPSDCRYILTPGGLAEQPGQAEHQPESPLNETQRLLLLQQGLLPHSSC
Sequence of RAF1 (P04049 306-648 Y340D/Y341D limits assumed): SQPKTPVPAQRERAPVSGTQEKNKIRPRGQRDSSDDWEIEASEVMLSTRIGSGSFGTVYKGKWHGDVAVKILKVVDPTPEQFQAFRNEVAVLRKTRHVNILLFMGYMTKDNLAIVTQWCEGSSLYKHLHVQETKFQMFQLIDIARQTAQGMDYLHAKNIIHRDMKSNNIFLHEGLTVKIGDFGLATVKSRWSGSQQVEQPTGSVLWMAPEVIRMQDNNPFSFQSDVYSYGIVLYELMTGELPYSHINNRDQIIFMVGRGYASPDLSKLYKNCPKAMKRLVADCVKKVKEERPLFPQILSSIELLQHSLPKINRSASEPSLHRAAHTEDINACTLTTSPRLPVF
Sequence of ALK (Q9UM73 19-1620): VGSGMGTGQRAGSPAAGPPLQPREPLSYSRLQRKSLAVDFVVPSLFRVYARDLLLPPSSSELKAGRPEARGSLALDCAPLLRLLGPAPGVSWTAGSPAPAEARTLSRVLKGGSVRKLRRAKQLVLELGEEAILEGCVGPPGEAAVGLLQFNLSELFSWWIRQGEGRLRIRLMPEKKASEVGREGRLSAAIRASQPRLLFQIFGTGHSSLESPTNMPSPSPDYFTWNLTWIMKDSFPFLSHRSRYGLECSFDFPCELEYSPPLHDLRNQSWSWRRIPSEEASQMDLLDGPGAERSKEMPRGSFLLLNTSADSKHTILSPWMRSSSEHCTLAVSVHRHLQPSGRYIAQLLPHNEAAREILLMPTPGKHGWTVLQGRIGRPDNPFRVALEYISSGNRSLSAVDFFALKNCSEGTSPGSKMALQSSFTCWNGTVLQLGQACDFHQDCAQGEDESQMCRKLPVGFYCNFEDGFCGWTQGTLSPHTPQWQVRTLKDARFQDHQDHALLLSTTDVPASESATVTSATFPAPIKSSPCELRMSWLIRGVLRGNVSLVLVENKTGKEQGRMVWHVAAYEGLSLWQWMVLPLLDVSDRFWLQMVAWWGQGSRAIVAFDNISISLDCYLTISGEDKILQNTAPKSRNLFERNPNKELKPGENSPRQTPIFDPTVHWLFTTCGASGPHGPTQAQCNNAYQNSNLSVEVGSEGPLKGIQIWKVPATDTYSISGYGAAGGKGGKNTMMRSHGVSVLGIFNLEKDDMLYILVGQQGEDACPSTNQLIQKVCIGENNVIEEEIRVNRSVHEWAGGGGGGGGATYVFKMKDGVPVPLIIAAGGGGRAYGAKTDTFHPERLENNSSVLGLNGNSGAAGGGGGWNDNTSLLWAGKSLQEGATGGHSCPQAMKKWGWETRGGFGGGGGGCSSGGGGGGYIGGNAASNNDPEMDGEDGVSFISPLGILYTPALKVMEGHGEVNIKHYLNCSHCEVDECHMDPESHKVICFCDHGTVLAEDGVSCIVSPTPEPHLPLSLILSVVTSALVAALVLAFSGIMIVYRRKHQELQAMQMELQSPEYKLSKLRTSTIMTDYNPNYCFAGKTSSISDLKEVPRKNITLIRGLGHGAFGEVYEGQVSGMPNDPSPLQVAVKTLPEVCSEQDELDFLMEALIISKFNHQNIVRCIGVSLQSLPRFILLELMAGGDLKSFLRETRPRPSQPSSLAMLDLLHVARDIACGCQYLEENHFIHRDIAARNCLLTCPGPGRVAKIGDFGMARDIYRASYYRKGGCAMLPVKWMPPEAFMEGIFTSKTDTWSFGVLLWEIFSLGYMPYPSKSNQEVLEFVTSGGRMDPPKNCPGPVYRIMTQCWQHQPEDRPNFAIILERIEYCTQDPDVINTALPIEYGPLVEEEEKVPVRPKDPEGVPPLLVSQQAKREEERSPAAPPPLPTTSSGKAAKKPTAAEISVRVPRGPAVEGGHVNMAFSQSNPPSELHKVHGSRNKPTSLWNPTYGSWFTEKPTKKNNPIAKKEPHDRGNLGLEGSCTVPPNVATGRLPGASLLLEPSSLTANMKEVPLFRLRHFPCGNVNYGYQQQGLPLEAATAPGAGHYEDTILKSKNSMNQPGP
Sequence of INSRR (P14616 27-1297): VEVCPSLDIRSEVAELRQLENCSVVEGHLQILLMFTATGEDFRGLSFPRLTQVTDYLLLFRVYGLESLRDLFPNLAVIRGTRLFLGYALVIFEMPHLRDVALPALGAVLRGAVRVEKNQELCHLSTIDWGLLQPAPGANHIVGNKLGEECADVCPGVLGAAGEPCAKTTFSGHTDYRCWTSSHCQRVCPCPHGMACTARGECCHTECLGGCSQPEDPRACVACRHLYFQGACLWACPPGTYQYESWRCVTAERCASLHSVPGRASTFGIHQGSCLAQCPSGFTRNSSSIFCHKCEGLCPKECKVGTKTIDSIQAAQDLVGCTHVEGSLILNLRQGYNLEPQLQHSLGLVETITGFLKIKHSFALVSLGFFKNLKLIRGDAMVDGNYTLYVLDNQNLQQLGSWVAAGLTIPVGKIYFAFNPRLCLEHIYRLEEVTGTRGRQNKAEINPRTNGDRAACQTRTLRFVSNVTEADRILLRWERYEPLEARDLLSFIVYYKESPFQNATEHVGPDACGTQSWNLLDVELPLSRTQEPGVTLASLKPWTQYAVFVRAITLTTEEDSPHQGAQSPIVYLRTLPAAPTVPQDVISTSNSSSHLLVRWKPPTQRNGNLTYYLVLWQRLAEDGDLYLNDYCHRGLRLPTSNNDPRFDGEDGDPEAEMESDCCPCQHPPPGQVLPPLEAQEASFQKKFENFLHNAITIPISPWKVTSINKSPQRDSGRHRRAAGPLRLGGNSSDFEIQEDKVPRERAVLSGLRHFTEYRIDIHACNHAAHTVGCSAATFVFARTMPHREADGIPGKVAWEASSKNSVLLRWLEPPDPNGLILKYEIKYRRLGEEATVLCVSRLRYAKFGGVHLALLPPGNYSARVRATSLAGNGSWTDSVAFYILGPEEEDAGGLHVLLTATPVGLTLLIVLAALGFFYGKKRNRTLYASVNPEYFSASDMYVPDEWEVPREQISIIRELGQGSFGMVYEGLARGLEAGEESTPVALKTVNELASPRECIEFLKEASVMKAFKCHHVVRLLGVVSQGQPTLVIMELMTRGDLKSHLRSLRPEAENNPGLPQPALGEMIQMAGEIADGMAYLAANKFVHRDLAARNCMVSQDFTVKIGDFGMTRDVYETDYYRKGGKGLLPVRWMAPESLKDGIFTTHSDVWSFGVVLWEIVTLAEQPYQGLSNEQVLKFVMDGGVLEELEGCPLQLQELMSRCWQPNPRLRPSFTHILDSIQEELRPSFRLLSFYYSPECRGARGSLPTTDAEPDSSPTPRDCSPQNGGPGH
Sequence of NTRK1 (P04629 33-796): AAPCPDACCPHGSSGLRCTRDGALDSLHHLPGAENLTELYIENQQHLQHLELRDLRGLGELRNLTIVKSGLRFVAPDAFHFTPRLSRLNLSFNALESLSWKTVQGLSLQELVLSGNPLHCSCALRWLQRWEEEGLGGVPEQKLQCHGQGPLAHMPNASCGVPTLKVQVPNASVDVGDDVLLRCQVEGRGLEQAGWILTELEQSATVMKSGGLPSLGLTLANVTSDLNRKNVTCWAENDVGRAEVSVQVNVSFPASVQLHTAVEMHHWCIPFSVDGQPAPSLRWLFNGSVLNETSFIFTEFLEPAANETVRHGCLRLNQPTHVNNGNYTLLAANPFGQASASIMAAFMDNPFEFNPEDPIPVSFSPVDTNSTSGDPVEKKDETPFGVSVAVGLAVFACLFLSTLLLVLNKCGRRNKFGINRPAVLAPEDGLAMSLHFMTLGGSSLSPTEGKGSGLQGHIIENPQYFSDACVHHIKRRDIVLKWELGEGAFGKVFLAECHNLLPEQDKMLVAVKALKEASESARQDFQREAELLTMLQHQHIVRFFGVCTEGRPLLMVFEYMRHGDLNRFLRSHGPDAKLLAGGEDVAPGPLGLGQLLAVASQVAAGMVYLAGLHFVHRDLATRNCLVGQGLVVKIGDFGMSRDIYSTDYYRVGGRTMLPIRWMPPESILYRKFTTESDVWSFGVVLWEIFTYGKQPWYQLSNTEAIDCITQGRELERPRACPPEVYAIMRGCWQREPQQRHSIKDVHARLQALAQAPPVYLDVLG

CCc1nc(C(N)=O)c(Nc2ccc(N3CCC(Nc4ccccc4)CC3)c(OC)c2)nc1NC1CCOC(C(O)CO)C1 (stereo not drawn) [FLIN-4]
> 10 µM: FGR | EPHA3 | ERBB2 | EPHA6 | EPHA2 | NTRK2 | HCK | PDGFRB | EPHB1 | MUSK | NTRK3 | JAK1 | EPHA5 | FYN | FGFR1 | LTK | PTK2 | NTRK1 | CDK1 | EPHB4 | JAK2 | EPHA4 | CDK2 | PLK1 | MET | PDGFRA | FGFR3 | ZAP70 | ABL2 | MST1R | INSRR | RAF1 | AXL | EPHA8 | PIM1 | FGFR4 | FRK | FGFR2 | LYN | EPHB3 | TYRO3 | ALK
